# From patent publication US7202046B2, “Use of a fluorescent protein for detecting interaction between a target protein and its ligand” (priority 1997, dated 2007)
# “And” between values parts separate entries of the source, which are not always exact repeats. Equal values may be shown once. Read-outs that look alike come from different tables or passages of the source.
# Assays:
# [1] = system: fluorescent receptor NK2R-RF1; experiment: Displacement of 3H SR 48968 binding (competition experiment), HEK 293 cells expressing NK2R-RF1; design: species or system rat; conditions: read-out: KI, displacement of 3H SR 48968, 1 nM 3H SR 48968, 25,000 cells, 4° C.
# Description: Each 500 μl sample contains 25,000 cells, 1 nM 3HSR 48968 and a non-radioactive ligand at various concentrations (from 1 nM to 10 μM). The incubation is carried out for one hour at 4° C. Filtration is carried out at the end of incubation, as described in 3b).
# [2] = system: NK2R-RF1 receptor; experiment: Fluorescence energy transfer between fluorescent ligand and NK2R-RF1 on HEK293 cells in suspension; format: binding, rat; conditions: for Kd: 0 to 256 nM ligand, read-out: affinity value KD from amplitude of the fluorescence signal; for Kd / inhibition of real-time energy transfer between 100 nM NKA BO I and NK2R-RF1: 10^6 cells/ml; for Kd / detection of receptor-fluorescent ligand interaction signal (energy transfer) / inhibition of real-time energy transfer between 100 nM NKA BO I and NK2R-RF1: emission 510 nm; for reversal of the energy transfer signal by excess non-labeled ligand, at equilibrium: 1–10 μM non-labeled ligand after 100 nM NKA BO I; for detection of receptor-fluorescent ligand interaction signal (energy transfer): 100 nM fluorescent ligand, real time; for inhibition of real-time energy transfer between 100 nM NKA BO I and NK2R-RF1: 20 μM non-fluorescent ligand
# Description: The fluorescence experiments are carried out in a 1 ml tank fitted with a magnetic stirring system and placed in a Fluorolog spectrofluorimeter (SPEX) equipped with a 450 W xenon lamp (Osram) and Spex 1680 0.22 m (excitation) and Spex 1681 0.22 m (emission) monochromators. The cells or the membrane fragments are suspended in physiological buffer: 10 mM Hepes, 137.5 mM NaCl, 1.25 mM MgCl2, 1.25 mM CaCl2, 6 mM KCl, 5.6 mM glucose, 0.4 mM NaH2PO4, 0.1% (w/v) BSA, pH 7.4.
# The HEK293 cells expressing the NK2R-RF1 are suspended at a concentration of 1,000,000 cells/ml in Hepes physiological buffer (10 mM Hepes, 137.5 mM NaCl, 1.25 mM MgCl2, 1.25 mM CaCl2, 6 mM KCl, 5.6 mM glucose, 0.4 mM NaH2PO4, 0.1% (w/v) BSA, pH 7,4). The cells are then placed in a fluorescence tank at a concentration which can range from 100,000 to 1,000,000 cells/ml. […] The emission spectrum of the solution is again recorded. […] The appearance of a peak at 550–560 nm during the addition of the fluorescent ligand and a reduction in its intensity during the addition of non-labeled ligand are also detected. […] The signal is reversible by means of addition of a pharmacological agent capable of inhibiting the interaction between the ligand and its receptor.
# The same recordings can be made in real time. For this, the excitation wavelength is set at 460 nm and the emission wavelength is set at 510 nm. […] The final value of the fluorescence intensity can be higher than the initial value when the absorption of the fluorescent ligand contributes to the signal.
# [3] = molecular target: T1, wild-type NK2R receptor (Rattus norvegicus, UniProt P16610); experiment: Release of intracellular calcium (FURA 2), cells expressing pCEP4-NK2R WT; format: cell-based; conditions: for inhibition of the NKA-elicited calcium response: antagonist (5 μM cyclopeptide) then 10 nM NKA
# T1 construct: expressed in transfected cells; host or cells: HEK 293 cells, construct pCEP4-NK2R
# T1 sequence (P16610 1-390): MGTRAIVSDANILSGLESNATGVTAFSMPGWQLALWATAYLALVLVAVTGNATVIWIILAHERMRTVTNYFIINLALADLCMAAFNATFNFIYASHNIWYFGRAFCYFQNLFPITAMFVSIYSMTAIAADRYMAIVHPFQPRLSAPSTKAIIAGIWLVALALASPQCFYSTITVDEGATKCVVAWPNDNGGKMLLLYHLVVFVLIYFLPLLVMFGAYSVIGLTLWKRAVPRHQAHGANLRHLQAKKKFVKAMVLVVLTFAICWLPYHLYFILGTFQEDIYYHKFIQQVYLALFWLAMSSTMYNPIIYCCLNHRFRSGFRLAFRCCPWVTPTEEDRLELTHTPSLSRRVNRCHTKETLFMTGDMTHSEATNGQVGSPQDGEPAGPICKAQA
# Description: (§1) The fluorescent calcium-chelating agent, FURA 2 acetyl methyl ester (Molecular Probes), dissolved in DMSO is diluted to a concentration of 3 μM in 10 mM Hepes, 137.5 mM NaCl, 1.25 mM MgCl2, 1.25 mM CaCl2, 6 mM KCl, 5.6 mM glucose, 0.4 mM NaH2PO4, 0.1% (w/v) BSA, pH 7.4 buffer. The cell culture medium is aspirated and then replaced with 7 to 10 ml of FURA 2 AM solution. The cells are placed in the CO2 incubator for 45 min. The medium is then aspirated, replaced with FURA-free Hepes buffer and the cells are replaced in the CO2 incubator for a further 15 min. The buffer is aspirated and the cells are then collected after they have been detached from the dish with a 5 mM EDTA, PBS solution for 5 min. After centrifugation at 1000×g for 5 min., the cell pellet obtained is re-suspended at a rate of 1×10^6 cells/ml in Hepes buffer.
# (§2) The calcium-release measurements are carried out at 37° C., in a spectrofluorimetiy tank containing a magnetic stirrer bar. The excitation wavelength is set at […] and the emission wavelength is set at 510 nm.
# [4] = system: NK2R-RF1; experiment: Release of intracellular calcium (FURA 2), cells expressing pCEP4-NK2R-RF1; format: cell-based, rat; conditions: for inhibition of the NKA-elicited calcium response: antagonist (5 μM cyclopeptide) then 10 nM NKA
# Description: as §1, §2
# [5] = molecular target: T1, wild-type NK2R receptor; experiment: Saturation binding of 3H SR 48968 to whole cells expressing wild-type NK2R; conditions: two experiments
# Description: (§3) After incubation for 30 min. at room temperature, the samples are filtered through GF/C filters (Whatmann) pre-treated in 1% powdered milk in PBS (2.7 mM KCl, 1.47 mM KH2PO4, […], 8.06 mM Na2HPO4), rinsed twice with PBS (4 ml) and then counted in a scintillation cocktail.
# (§4) Each 500 μl sample contains 25,000 cells, and the fraction of bound ligand is less than 10% of the amount added to each tube. Filtration is carried out at the end of incubation, as described above.
# [6] = molecular target: T2, fluorescent receptor NK2R-RF1 (Rattus norvegicus, UniProt P16610); experiment: Saturation binding of 3H SR 48968 to whole cells expressing NK2R-RF1 (EGFP fused at N-terminal); conditions: two experiments
# T2 construct: fused on or other part: EGFP (from pEGFP C3-1) fused at the receptor's N-terminus, preceded by the signal peptide of the hen alpha7 nicotinic receptor subunit; Both are tag or targeting parts and are not part of the key
# Description: as §3, §4
# [7] = system: non-transfected HEK 293 cells; experiment: Release of intracellular calcium (FURA 2), non-transfected cells; format: cell-based
# Description: as §1, §2
# [8] = saturation curve, 25,000 cells, 4° C., 1 h 30 min, read-out: affinity value (KD)
molecule,measurement,setting,value
CSCC[C@H](NC(=O)[C@H](CC(C)C)NC(=O)CNC(=O)[C@@H](NC(=O)[C@H](Cc1ccccc1)NC(=O)[C@H](CO)NC(=O)[C@H](CC(=O)O)NC(=O)[C@@H](NC(=O)[C@H](CCCCN)NC(=O)[C@H](Cc1c[nH]cn1)NCC(=O)NCCNC(=O)CCc1ccc2n1[B-](F)(F)[N+]1=C(c3ccccc3)C=C(c3ccccc3)C1=C2)[C@@H](C)O)C(C)C)C(N)=O [NKA BO I],Ki,[1],16 nM
same,Ki,[1]; listed as NKA-BO I,16.1 nM
same,Kd,[2]; listed as NKA-BO I,24 nM
same,Kd,[2],20 to 30 nM
same,"change of EGFP fluorescence (510 nm) on addition of fluorescent ligand, at equilibrium","[2]; 100 nM ligand, excitation 460 nm",extinction of the fluorescence of EGFP
CC(=O)NC1(c2ccccc2)CCN(CC[C@H](CN(C)C(=O)c2ccccc2)c2ccc(Cl)c(Cl)c2)CC1 [SR 48968],inhibition of the NKA-elicited calcium response,[3],inhibited
same,"reversal of the energy transfer signal by excess non-labeled ligand, at equilibrium",[2],return to the initial fluorescence
same,inhibition of the NKA-elicited calcium response,[4],inhibited
CC(=O)NC1(c2ccccc2)CCN(CC[C@H](CN(C)C(=O)c2ccccc2)c2ccc(Cl)c(Cl)c2)CC1 [^3H SR 48968],Kd,[5]; [8],1.05 nM and 0.78 nM
same,maximum binding value (B max),[5]; saturation curve,"0.1 pMol/25,000 cells"
same,Kd,[6]; [8],0.8 nM and 0.92 nM
same,maximum binding (B max) value,[6]; saturation curve,"0.075 pMol/25,000 cells and 0.088 pMol/25,000 cells"
NKA Eos: eosin derivative of NKA (eosin-5-iodoacetamide),detection of receptor-fluorescent ligand interaction signal (energy transfer),[2],detection of an NK2R-RF1 receptor-fluorescent ligand interaction signal
NKA TR: neurokinin A labeled with sulforhodamine 101 acid chloride (Texas Red),detection of receptor-fluorescent ligand interaction signal (energy transfer),[2],detection of an NK2R-RF1 receptor-fluorescent ligand interaction signal
cyclo(-Gln-Trp-Phe-Gly-Leu-Met) (QWFGLM; cyclic; printed: Gln-Trp-Phe-Gly-Leu-Met) [NK2R antagonist cyclopeptide (Bachem)],inhibition of the NKA-elicited calcium response,[3],inhibited
same,inhibition of real-time energy transfer between 100 nM NKA BO I and NK2R-RF1,[2],inhibition
same,"reversal of the energy transfer signal by excess non-labeled ligand, at equilibrium",[2],return to the initial fluorescence
same,inhibition of the NKA-elicited calcium response,[4],inhibited
neurokinin A [NKA],calcium release response elicited,"[3]; 10 nM NKA, 37° C.",elicited
same,Ki,[1],2.1 nM
same,inhibition of real-time energy transfer between 100 nM NKA BO I and NK2R-RF1,[2],inhibition
same,"reversal of the energy transfer signal by excess non-labeled ligand, at equilibrium",[2],return to the initial fluorescence
same,effect of non-fluorescent ligand alone on the fluorescence emission spectrum,"[2]; cells expressing NK2R-RF1, no fluorescent ligand",has no effect on the fluorescence emission spectrum
same,calcium release response,[7],does not elicit any response
same,calcium release response elicited,"[4]; 10 nM NKA, 37° C.",elicited
